Laboratory results published in US8609671B2, “Method of inhibiting hepatic fibrosis as a result of liver replacement or repair using A2B adenosine receptor antagonists” (Gilead Sciences, Inc., priority 2006, dated 2013).
“Also recorded” adds a separate entry of the source.

Legend:
HHSCs [1] = experiment: Measurement of cAMP accumulation in HHSCs; format: cell-based, human; settings: for effect of agonist on cellular cAMP accumulation: with rolipram 50 μM, 15 min, CGS-21680 (=10 μM); for effect on forskolin-induced cellular cAMP accumulation: agonist 1 μM, forskolin 10 μM
Procedure: (§1) Primary cultured normal human hepatic stellate Cells (HHSCs) were obtained from ScienCell Research Laboratories (San Diego, Calif.) and cultured using stellate cell growth medium (ScienCell Research Laboratories). HHSCs were routinely grown in a humidified incubator with 5% CO2 at 37° C. and reseeded when they reached about 80-90% confluency. Each re-seeding is called a passage. Cells from passages 2 to 5 were used in the following studies.
Cells were harvested using 0.0025% trypsin and 2 mM EDTA in PBS, washed and resuspended in phenol-free DMEM to a concentration of 1×10^6 cells/ml, and then incubated with 1 U/ml of ADA for 30 min at room temperature. Cells were then treated with AdoR agonists, antagonists, and forskolin in the presence of 50 μM of the phosphodiesterase IV inhibitor, rolipram. After incubating for 15 min at 37° C., cells were lysed and cAMP concentrations were determined using cAMP-Screen Direct™ System (Applied Biosystems) according to the manufacturer's instructions.

HHSCs [2] = experiment: mRNA levels of α-smooth muscle actin and α-1 pro-collagen in HHSCs (real-time RT-PCR); format: cell-based, human; settings: NECA 10 μM, 1 h
Procedure: HHSCs were seeded into 12-well tissue culture plates at a density of 1×10^5 cells/well in stellate cell growth medium and allowed to adhere overnight and reach ˜90% confluency. Cells were washed twice in HEPES buffered saline, and cultured in DMEM containing various agonists or antagonists of AdoRs for 1 or 24 h. Total RNA was extracted from HHSCs using the Stratagene Absolutely RNA™ RT-PCR Miniprep Kit followed by DNase treatment to eliminate potential genomic DNA contamination. Real-time RT-RCR for adenosine receptors was performed as previously described in Zhong et al. (2004) Am J Respir Cell Mol Biol; 30(1):118-125. The specific primers for α-smooth muscle actin used were: while the primers for α-1 pro-collagen were: and each of these primers were designed using Primer Express 2.0 (Applied Biosystems) following the recommended guidelines based on sequences from Genbank. At the end of the PCR cycle, a dissociation curve was generated to ensure the amplification of a single product, and the threshold cycle time (Ct value) for each gene was determined. Relative mRNA levels were calculated based on the Ct values, normalized to β-actin in the same sample, and presented as percentages of β-actin mRNA. Measurement of cAMP Accumulation

HHSCs [3] = experiment: Collagen production by HHSCs (Sircol collagen assay); format: cell-based, human; settings: 24 h
Procedure: (§2) HHSCs were seeded into 12-well tissue culture plates at a density of 1×10^5 cells/well in stellate cell growth medium and allowed to adhere overnight and reach ˜90% confluency. Cells were washed twice in HEPES buffered saline, and cultured in DMEM containing various agonists or antagonists of AdoRs for 1 or 24 h.
(§3) The concentration of IL-6 in the cell medium was determined using ELISA kits obtained from Biosource (Camarillo, Calif.) according to the manufacturer's instructions. The minimal detection levels of IL-6 with these kits were 2 pg/ml. The concentration of soluble collagen in the cell medium was measured using the Sircol collagen assay (Biocolor Ltd., Belfast N. Ireland) according to manufacture's instructions. The activity of AST in mouse plasma was determined using the Infinity™ AST assay (Thermo Electron Corporation, Waltham, Mass.)

HHSCs [4] = experiment: IL-6 release by HHSCs (ELISA); format: cell-based, human; parameters: maximal increase of IL-6 release over the basal level: concentration or dose not given beside the values
Procedure: as §1, §2, §3

[5] = target: T1, Human A2A adenosine receptor (Homo sapiens, UniProt P29274); settings: read-out: affinity for A2A receptor (Ki); cited from earlier work
T1 construct: expressed in transfected cells; host or cells: HEK-293 (HEK-A2A), membrane preparation

[6] = target: T2, Human A1 adenosine receptor (Homo sapiens, UniProt P30542); settings: read-out: affinity for A1 receptor (Ki); cited from earlier work
T2 sequence (P30542 1-326): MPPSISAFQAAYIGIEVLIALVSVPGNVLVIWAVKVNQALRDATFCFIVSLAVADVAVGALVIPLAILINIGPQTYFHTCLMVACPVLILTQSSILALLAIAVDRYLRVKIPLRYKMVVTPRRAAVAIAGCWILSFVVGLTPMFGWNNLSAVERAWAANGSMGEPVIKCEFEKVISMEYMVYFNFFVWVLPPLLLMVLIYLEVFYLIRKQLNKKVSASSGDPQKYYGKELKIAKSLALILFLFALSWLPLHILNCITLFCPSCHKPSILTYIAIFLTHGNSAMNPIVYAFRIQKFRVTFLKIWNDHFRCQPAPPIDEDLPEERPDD

[7] = target: T3, Human A3 adenosine receptor (Homo sapiens, UniProt P0DMS8); settings: read-out: affinity for A3 receptor (Ki); cited from earlier work
T3 construct: expressed in transfected cells; host or cells: CHO (CHO-A3), membrane preparation
T3 sequence (P0DMS8 1-318): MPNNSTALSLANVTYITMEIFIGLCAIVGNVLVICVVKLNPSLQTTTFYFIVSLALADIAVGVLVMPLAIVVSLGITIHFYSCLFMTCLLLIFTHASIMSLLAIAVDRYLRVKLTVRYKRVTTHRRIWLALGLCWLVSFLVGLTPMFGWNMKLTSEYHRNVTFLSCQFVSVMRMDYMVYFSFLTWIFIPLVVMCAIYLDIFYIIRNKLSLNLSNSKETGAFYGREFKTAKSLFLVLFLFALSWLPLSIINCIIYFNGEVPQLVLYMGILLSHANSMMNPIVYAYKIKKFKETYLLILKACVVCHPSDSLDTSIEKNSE

ADA^−/− mice = experiment: Plasma AST levels in ADA-deficient mice; format: in vivo; settings: 1 mg/kg per injection i.p. morning and evening for 17 days, vs vehicle
Procedure: as §3
Adenosine deaminase (ADA)-deficient mice were generated and genotyped as described in Blackburn et al. (1998), J Biol Chem, 273(9):5093-5100. Mice homozygous for the null Ada allele were designated ADA-deficient (ADA^−/−), while mice heterozygous for the null Ada allele were designated as ADA control mice (ADA^+). All mice were on a mixed 129sv/C57BL/6J background and all phenotypic comparisons were performed amongst littermates. Animal care was in accordance with institutional and NIH guidelines. Mice were housed in ventilated cages equipped with microisolator lids and maintained under strict containment protocols. No evidence of bacterial, parasitic, or fungal infection was found, and serologies on cage littermates were negative for 12 of the most common murine viruses. […]

T1 sequence (P29274 whole entry): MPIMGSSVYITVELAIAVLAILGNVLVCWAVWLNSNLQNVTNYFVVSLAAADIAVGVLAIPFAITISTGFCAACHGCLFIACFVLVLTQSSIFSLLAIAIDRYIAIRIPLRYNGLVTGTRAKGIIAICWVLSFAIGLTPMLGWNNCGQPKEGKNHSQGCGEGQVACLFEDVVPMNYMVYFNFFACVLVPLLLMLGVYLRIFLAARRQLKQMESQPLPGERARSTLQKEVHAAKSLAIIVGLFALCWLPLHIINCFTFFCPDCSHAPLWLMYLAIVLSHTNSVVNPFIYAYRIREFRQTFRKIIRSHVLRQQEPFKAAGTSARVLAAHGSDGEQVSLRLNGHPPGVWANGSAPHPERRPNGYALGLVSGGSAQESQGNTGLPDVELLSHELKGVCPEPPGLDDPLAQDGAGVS

## CCNC(=O)[C@H]1O[C@@H](n2cnc3c(N)nc(NCCc4ccc(CCC(=O)O)cc4)nc32)[C@H](O)[C@@H]1O [CGS-21680]
HHSCs [1]
  effect of agonist on cellular cAMP accumulation: did not cause a significant increase

## OC[C@H]1O[C@@H](n2cnc3c(NC4CCCC4)ncnc32)[C@H](O)[C@@H]1O [CPA, N6-cyclopentyladenosine]
HHSCs [1]
  effect on forskolin-induced cellular cAMP accumulation: Lack of effect; also recorded: failed to inhibit

## CNC(=O)[C@H]1O[C@@H](n2cnc3c(NCc4cccc(I)c4)ncnc32)[C@H](O)[C@@H]1O [IB-MECA]
HHSCs [1]
  effect on forskolin-induced cellular cAMP accumulation: Lack of effect; also recorded: failed to inhibit

## CCNC(=O)[C@H]1O[C@@H](n2cnc3c(N)ncnc32)[C@H](O)[C@@H]1O [NECA, 5′-(N-ethylcarboxamido)-adenosine]
HHSCs [2]
  expression of α-1 pro-collagen mRNA: significantly increased
  expression of α-smooth muscle actin mRNA: significantly increased
HHSCs [3]
  release of soluble collagen: increased; also recorded: significant increase
HHSCs [4]
  maximal increase of IL-6 release over the basal level: 11.9±3.1 fold
HHSCs [4]; 24 h
  effect on IL-6 release: increased IL-6 release in a concentration-dependent manner
HHSCs [4]; NECA 100 μM, 24 h
  increase of IL-6 release compared to vehicle-treated cells: 11.9±3.1 fold
HHSCs [1]
  effect of agonist on cellular cAMP accumulation: increased cellular cAMP accumulation in a concentration-dependent manner

## Nc1ncnc2c1ncn2[C@@H]1O[C@H](CO)[C@@H](O)[C@H]1O [adenosine]
HHSCs [4]
  maximal increase of IL-6 release over the basal level: 11.9±3.1 fold
HHSCs [4]; 24 h
  effect on IL-6 release: increased IL-6 release in a concentration-dependent manner

## CCCn1c(=O)[nH]c2nc(-c3cnn(Cc4noc(-c5ccc(Cl)cc5)n4)c3)[nH]c2c1=O [compound (1), 8-(1-{[5-(4-chlorophenyl)(1,2,4-oxadiazol-3-yl)]methyl}pyrazol-4-yl)-1-propyl-1,3,7-trihydropurine-2,6-dione]
[5]
  Ki: > 5 µM
[6]
  Ki: > 5 µM
HHSCs [3]; NECA 10 μM
  effect on NECA-induced collagen production: abolished
HHSCs [4]; compound 1 μM together with NECA 10 μM
  reduction of NECA-increased IL-6 release: 90.7±0.1%
HHSCs [1]; antagonist 1 μM
  effect on NECA-induced cellular cAMP accumulation: significantly attenuated
[7]
  Ki: > 5 µM

## CCCn1c(=O)c2[nH]c(-c3cnn(Cc4cccc(C(F)(F)F)c4)c3)nc2n(CC)c1=O [compound (2), 3-ethyl-1-propyl-8-(1-{[3-(trifluoromethyl)phenyl]methyl}pyrazol-4-yl)-1,3,7-trihydropurine-2,6-dione]
ADA^−/− mice
  plasma AST levels: significant reduction
